Experimental data published in patent US20050215635A1, “Diarylheptanoid compounds and uses thereof” (priority 2004, published 2005).

Experiments:
[1] = system: Du-145 prostate tumor cells; assay: MTT-microculture tetrazolium cell viability assay / induction of apoptosis in Du-145; type: cell-based; conditions: for IC50: Homo sapiens, Du-145 prostate tumor cells, MTT, 72 hours incubation, drug concentration giving 50% inhibition of growth, read-out: IC50 (μM), Effects of Diarylheptanoids on Inducing Apoptosis in DU-145 Cancer Cell Line; for activity in bioassay: inducing apoptosis in Du-145 cancer cell line (in words): bioassay-directed fractionation of Alpinia officinarum
Procedure: The rhizomes of Alpinia officinarum were purchased from Nuherbs Co. (Oakland, Calif.). Du-145 prostate tumor cells were obtained from the American Type Culture Collection (ATCC). Cells were maintained at 37° C. in an atmosphere of 5% CO2 and grown in Roswell Park Memorial Institute (RPMI) media 1640 (GIBCO/BRL) with 10% fetal bovine serum and with 5% penicillin and streptomycin.
The powdered roots of Alpinia officinarum were extracted with methanol and concentrated under vacuum using rotary evaporation. The dried residue was then partitioned with hexanes, ethyl acetate and 1-butanol successively. The three extracts were subjected to bioassays.
The dried ethyl acetate extract was then chromatographed on a normal phase silica gel column (2.5×30 cm) to perform bioassay-directed fractionation. The extract was first dissolved in methanol and loaded onto the column packing material. The prepared extract was then placed on top of the column and elution was performed using a solvent mixture of chloroform/methanol with an increasing amount of methanol (30:1, 20:1, 10:1, 5:1, 0:100; each 1000 mL). Successive fractions were collected and tested for biological activity. […] This fraction was then rechromatographed on a semipreparative Zorbax Rx-C18 reversed phase HPLC column (9.4 mm×240 mm, 5 μm) purchased from MacMod Analytical (Chadds Ford, Pa.). Compounds were eluted by an isocratic solvent system: 55% A, water with 0.05% formic acid (FA); 45% B, ACN (v/v) at a flow rate of 4 mL/min. The wavelength monitored was 205 nm. Successive fractions (1-3) were collected and sent for biological testing again.
Cellular growth in the presence or absence of experimental agents was determined using the modified method as previously described MTT-microculture tetrazolium assay (World Health Organization (ED.), Medicinal Plants in China, WHO Regional Publications, 1989, 21). Briefly, rapidly growing cells were harvested, counted, and inoculated at the appropriate concentrations (100 μL volume) into 96-well micro-titer plates using a multichannel pipet. After 24 hours, AO-1 to AO-5 were applied in different concentrations to triplicate culture wells, and cultures were incubated for 72 hours at 37° C. MTT ( Sigma, St. Louis, Mo.) was prepared at 2 mg/ml in Phosphate buffered saline (PBS) and 50 μL were added to microculture wells. After 4 hour incubation at 37° C., […] were removed from each well, and 150 μL of 100% DMSO were added to solubilize the MTT-formazan product. After thorough mixing with a mechanical plate mixer, absorbence was measured at 570 nm using a Dynatech microplate reader. […] This assay is based on the reduction of MTT tetrazolium salt to a formazan product by the metabolic activity of live cells and which was measured in a multiwell scanning spectrophotometer. Cell line growth and growth inhibition were expressed in terms of mean absorbance units and following the substraction of mean background absorbance.

[2] = Radical-scavenging activity by DPPH; conditions: for IC50: DPPH 63.4 μM in methanol, absorbance at 515 nm, steady state, read-out: IC50 (μM) of Diarylheptanoids in Scavenging DPPH Free Radicals; for free radical scavenging, DPPH data (in words): DPPH assay
Source text: In this example, the 2,2-diphenyl-1-picrylhydrazyl (DPPH) method was used to explore the capacity of five isolated compounds of the invention to act as free radical scavengers. The DPPH assay has been extensively used to test the free radical scavenging ability of various chemicals (Brand-williams, W. et al., Wiss. Technol. 1995, 28, 25-30; Dinis, T. C. et al., Arch. Biochem. Biophys. 1994, 315, 161-169.)
This method was adapted from that of Brand-Williams, et al. (Brand-williams, W.; Cuvelier, M. E.; Berset, C. Lebensm. Wiss. Technol. 1995, 28, 25-30.). At least seven different concentrations were prepared for each purified compound. 25 μl pure compound solution and 975 μL DPPH solution (63.4 μM) were mixed together and left in the dark for 30 min. Each sample was triplicated and the values were averaged. The absorbance of the samples was measured at 515 nm against methanol solution without DPPH as the blank reference. The absorbance was measured every 30 min until the reaction reached a plateau. The reaction kinetics were then plotted using the above data and the percentage of DPPH remaining at the steady state was obtained. IC50 values were determined by extrapolation from linear regression analysis.
DPPH, 2,2-Diphenyl-1-picrylhydrazyl (DPPH.), is a stable radical in methanol solution. In its radical form, DPPH. absorbs at 515 nm, but the absorption ceases upon reduction by an antioxidant (AH) or a radical species (R.) (Brand-williams, W.; Cuvelier, M. E.; Berset, C. Lebensm. Wiss. Technol. 1995, 28, 25-30.). The concentration of tested chemicals needed to decrease the initial DPPH. concentration by 50% (IC50) is a parameter widely used to measure the antioxidant potential (Kanner, J.; Frankel, E.; German, B.; Kinsella, J. e. J. Agric. Food Chem. 1994, 42, 64-69, Vinson, J. A.; Dabbagh, Y. A.; Serry, M. M. J. Agric. Food Chem. 1995a, 43,2800-2802.). The lower the IC50, the higher the free radical scavenging power.

IC50 [1]	IC50 [2]	Compound	activity in bioassay: inducing apoptosis in Du-145 cancer cell line (in words) [1]	free radical scavenging, DPPH data (in words) [2]
100 µM	11.4 µM	COc1cc(CCC(O)CC(=O)CCc2ccccc2)ccc1O (stereo not shown) [AO-1, 5-Hydroxy-7-(4″-hydroxy-3″methoxyphenyl)-1-phenyl-3-heptanone]	biological activity to some level	very good free radical scavengers
20 µM	> 1000 µM	O=C(/C=C/CCc1ccc(O)cc1)CCc1ccccc1 [AO-3, 7-(4″-hydroxyphenyl)-1-phenyl-hept-4-en-3-one]	some activity	–
32 µM	> 5000 µM	O=C(/C=C/CCc1ccccc1)CCc1ccccc1 [AO-5, 1,7-diphenylhept-4-en-3-one]	–	–
88 µM	12.7 µM	COc1cc(CCC(CC(=O)CCc2ccccc2)OC)ccc1O (stereo not shown) [AO-2, 5-methoxy-7-(4″-hydroxy-3″methoxyphenyl)-1-phenyl-3-heptanone]	some activity	very good free radical scavengers
